# According to ChEMBL document CHEMBL3817755, “Design, synthesis and biological evaluation of indazolepyrimidine based derivatives as anticancer agents with anti-angiogenic and antiproliferative activities” (Medchemcomm, 2016):
# Key:
# K562 [1] = test: Growth inhibition of human K562 cells at 10 uM after 48 hrs by SRB assay; type: functional; conditions: K562, 48 h, read-out: GI
# A549 = test: Growth inhibition of human A549/ATCC cells at 10 uM after 48 hrs by SRB assay; type: functional; conditions: A549, 48 h, read-out: GI
# NCI-H322M = test: Growth inhibition of human NCI-H322M cells at 10 uM after 48 hrs by SRB assay; type: functional; conditions: read-out: GI
# KM12 = test: Growth inhibition of human KM12 cells at 10 uM after 48 hrs by SRB assay; type: functional; conditions: KM12, 48 h, read-out: GI
# [2] = Growth inhibition of human SF295 cells at 10 uM after 48 hrs by SRB assay; type: functional; conditions: SF-295, 48 h, read-out: GI
# [3] = Growth inhibition of human SF539 cells at 10 uM after 48 hrs by SRB assay; type: functional; conditions: SF-539, 48 h, read-out: GI
# U-251 = test: Growth inhibition of human U251 cells at 10 uM after 48 hrs by SRB assay; type: functional; conditions: U-251, 48 h, read-out: GI
# SK-MEL-28 = test: Growth inhibition of human SK-MEL-28 cells at 10 uM after 48 hrs by SRB assay; type: functional; conditions: SK-MEL-28, 48 h, read-out: GI
# [4] = Growth inhibition of human UACC257 cells at 10 uM after 48 hrs by SRB assay; type: functional; conditions: UACC-257, 48 h, read-out: GI
# [5] = Growth inhibition of human OVCAR5 cells at 10 uM after 48 hrs by SRB assay; type: functional; conditions: OVCAR-5, 48 h, read-out: GI
# [6] = Growth inhibition of human OVCAR8 cells at 10 uM after 48 hrs by SRB assay; type: functional; conditions: OVCAR-8, 48 h, read-out: GI
# [7] = Growth inhibition of human Caki1 cells at 10 uM after 48 hrs by SRB assay; type: functional; conditions: CAKI-1, 48 h, read-out: GI
# [8] = Growth inhibition of human RXF393 cells at 10 uM after 48 hrs by SRB assay; type: functional; conditions: RXF 393, 48 h, read-out: GI
# [9] = Growth inhibition of human TK10 cells at 10 uM after 48 hrs by SRB assay; type: functional; conditions: TK-10, 48 h, read-out: GI
# MCF7 = test: Growth inhibition of human MCF7 cells at 10 uM after 48 hrs by SRB assay; type: functional; conditions: MCF7, 48 h, read-out: GI
# MDA-MB-231 = test: Growth inhibition of human MDA-MB-231 cells at 10 uM after 48 hrs by SRB assay; type: functional; conditions: MDA-MB-231, 48 h, read-out: GI
# [10] = Growth inhibition of human BT549 cells at 10 uM after 48 hrs by SRB assay; type: functional; conditions: BT-549, 48 h, read-out: GI
# K562 [11] = test: Growth inhibition of human K562 cells after 48 hrs by SRB assay; type: functional; conditions: K562, 48 h
# [12] = Growth inhibition of human HOP92 cells after 48 hrs by SRB assay; type: functional; conditions: HOP-92, 48 h
# NCI-H23 = test: Growth inhibition of human NCI-H23 cells after 48 hrs by SRB assay; type: functional; conditions: NCI-H23, 48 h
# NCI-H460 = test: Growth inhibition of human NCI-H460 cells after 48 hrs by SRB assay; type: functional; conditions: NCI-H460, 48 h
# NCI-H522 = test: Growth inhibition of human NCI-H522 cells after 48 hrs by SRB assay; type: functional; conditions: NCI-H522, 48 h
# [13] = Growth inhibition of human COLO205 cells after 48 hrs by SRB assay; type: functional; conditions: COLO 205, 48 h
# [14] = Growth inhibition of human HCT116 cells after 48 hrs by SRB assay; type: functional; conditions: HCT-116, 48 h
# [15] = Growth inhibition of human SF295 cells after 48 hrs by SRB assay; type: functional; conditions: SF-295, 48 h
# [16] = Growth inhibition of human LOXIMVI cells after 48 hrs by SRB assay; type: functional; conditions: LOX IMVI
# MDA-MB-435 = test: Growth inhibition of human MDA-MB-435 cells after 48 hrs by SRB assay; type: functional; conditions: MDA-MB-435, 48 h
# SK-MEL-5 = test: Growth inhibition of human SK-MEL-5 cells after 48 hrs by SRB assay; type: functional; conditions: SK-MEL-5, 48 h
# [17] = Growth inhibition of human OVCAR3 cells after 48 hrs by SRB assay; type: functional; conditions: OVCAR-3, 48 h
# [18] = Growth inhibition of human SKOV3 cells after 48 hrs by SRB assay; type: functional; conditions: SK-OV-3, 48 h
# 786-0 = test: Growth inhibition of human 786-0 cells after 48 hrs by SRB assay; type: functional; conditions: 786-0, 48 h
# [19] = Growth inhibition of human Caki1 cells after 48 hrs by SRB assay; type: functional; conditions: CAKI-1, 48 h
# [20] = Growth inhibition of human RXF393 cells after 48 hrs by SRB assay; type: functional; conditions: RXF 393, 48 h
# [21] = Growth inhibition of human Hs 578T cells after 48 hrs by SRB assay; type: functional
# [22] = Growth inhibition of human BT549 cells after 48 hrs by SRB assay; type: functional; conditions: BT-549, 48 h
# [23] = target: Hepatocyte growth factor receptor (Homo sapiens) (UniProt P08581); test: Inhibition of c-Met (unknown origin) at 10 uM
# Chain of Hepatocyte growth factor receptor (Homo sapiens) (P08581 whole entry): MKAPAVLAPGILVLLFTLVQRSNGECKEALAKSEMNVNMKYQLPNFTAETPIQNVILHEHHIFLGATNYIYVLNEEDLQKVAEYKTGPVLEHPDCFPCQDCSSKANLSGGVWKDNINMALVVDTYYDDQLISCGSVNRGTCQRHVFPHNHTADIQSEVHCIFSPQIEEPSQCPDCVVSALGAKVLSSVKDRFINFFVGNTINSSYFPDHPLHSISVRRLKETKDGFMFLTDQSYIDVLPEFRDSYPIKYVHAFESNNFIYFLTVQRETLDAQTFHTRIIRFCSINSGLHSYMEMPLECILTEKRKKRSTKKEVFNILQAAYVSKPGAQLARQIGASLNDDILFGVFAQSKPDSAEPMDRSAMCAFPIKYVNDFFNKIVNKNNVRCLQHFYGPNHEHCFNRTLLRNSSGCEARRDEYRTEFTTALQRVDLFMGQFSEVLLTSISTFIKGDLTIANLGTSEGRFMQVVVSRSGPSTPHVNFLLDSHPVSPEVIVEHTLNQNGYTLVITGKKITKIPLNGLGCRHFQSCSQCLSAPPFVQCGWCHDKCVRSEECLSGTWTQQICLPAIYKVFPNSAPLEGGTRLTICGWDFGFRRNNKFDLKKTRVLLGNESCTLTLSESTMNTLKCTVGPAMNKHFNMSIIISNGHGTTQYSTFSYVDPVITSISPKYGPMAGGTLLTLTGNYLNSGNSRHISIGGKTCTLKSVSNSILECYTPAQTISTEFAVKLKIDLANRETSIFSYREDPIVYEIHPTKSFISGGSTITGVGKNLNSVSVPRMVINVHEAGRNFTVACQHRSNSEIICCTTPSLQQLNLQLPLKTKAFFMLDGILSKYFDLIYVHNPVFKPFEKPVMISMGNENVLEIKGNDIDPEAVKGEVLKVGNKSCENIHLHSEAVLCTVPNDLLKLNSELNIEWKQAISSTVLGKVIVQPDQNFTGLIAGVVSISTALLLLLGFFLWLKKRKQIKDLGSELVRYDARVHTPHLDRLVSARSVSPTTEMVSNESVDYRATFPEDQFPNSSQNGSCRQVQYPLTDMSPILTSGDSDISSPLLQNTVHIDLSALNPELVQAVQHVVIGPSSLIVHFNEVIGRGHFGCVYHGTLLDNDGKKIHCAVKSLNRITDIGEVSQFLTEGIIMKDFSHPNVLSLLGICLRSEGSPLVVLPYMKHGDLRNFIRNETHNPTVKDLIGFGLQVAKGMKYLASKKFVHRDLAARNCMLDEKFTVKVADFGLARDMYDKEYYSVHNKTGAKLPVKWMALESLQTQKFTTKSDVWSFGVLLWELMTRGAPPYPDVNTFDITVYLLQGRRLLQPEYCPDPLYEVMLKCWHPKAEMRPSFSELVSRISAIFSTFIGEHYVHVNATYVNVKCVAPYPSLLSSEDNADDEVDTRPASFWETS
# [24] = target: Aurora kinase A (Homo sapiens) (UniProt O14965); test: Inhibition of Aurora A (unknown origin) at 10 uM
# Chain of Aurora kinase A (Homo sapiens) (O14965 whole entry): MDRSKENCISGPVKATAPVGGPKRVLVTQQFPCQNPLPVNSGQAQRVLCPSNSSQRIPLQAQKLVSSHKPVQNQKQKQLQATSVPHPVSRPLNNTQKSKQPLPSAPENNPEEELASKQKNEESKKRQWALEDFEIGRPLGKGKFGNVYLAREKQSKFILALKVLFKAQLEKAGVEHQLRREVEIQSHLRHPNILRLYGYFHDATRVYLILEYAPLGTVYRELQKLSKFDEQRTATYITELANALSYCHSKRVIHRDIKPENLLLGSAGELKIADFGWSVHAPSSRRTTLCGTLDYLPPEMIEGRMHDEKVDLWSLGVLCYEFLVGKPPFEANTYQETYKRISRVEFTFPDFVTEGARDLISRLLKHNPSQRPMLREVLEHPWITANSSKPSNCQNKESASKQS
# [25] = target: Mast/stem cell growth factor receptor Kit (Homo sapiens) (UniProt P10721); test: Inhibition of c-Kit (unknown origin) at 10 uM
# Chain of Mast/stem cell growth factor receptor Kit (Homo sapiens) (P10721 whole entry): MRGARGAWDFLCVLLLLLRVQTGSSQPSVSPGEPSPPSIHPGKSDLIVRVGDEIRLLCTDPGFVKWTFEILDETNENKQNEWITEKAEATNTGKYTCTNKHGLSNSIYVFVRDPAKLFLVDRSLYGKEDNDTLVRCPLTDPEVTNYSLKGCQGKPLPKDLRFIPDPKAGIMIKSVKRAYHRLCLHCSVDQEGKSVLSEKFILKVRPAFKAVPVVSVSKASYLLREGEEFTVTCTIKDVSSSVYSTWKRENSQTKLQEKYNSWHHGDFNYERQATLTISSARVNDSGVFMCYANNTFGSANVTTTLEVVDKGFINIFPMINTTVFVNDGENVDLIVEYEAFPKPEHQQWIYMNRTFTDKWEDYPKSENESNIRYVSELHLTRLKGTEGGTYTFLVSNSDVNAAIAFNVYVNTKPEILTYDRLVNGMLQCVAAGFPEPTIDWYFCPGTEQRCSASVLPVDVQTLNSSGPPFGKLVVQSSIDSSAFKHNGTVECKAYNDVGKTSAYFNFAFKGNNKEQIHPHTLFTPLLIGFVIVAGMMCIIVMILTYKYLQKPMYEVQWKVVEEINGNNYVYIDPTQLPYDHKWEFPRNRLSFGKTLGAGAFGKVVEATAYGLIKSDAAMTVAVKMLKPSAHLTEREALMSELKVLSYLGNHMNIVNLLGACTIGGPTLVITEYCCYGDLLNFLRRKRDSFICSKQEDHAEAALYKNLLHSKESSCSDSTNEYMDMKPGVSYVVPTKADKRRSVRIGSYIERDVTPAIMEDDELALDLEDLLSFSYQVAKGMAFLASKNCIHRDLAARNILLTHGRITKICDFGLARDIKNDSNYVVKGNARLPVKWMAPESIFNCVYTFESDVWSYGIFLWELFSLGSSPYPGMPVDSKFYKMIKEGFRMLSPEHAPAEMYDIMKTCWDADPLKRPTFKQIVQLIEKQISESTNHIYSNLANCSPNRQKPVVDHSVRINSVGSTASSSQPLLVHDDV
# [26] = read-out: LC50 (the source's name)
compound,measurement,setting,value
COc1cccc(Nc2nccc(Nc3ccc4[nH]ncc4c3)n2)c1,inhibition of growth at 10 µM,K562 [1],110%
same,inhibition of growth at 10 µM,A549,168%
same,inhibition of growth at 10 µM,NCI-H322M,93%
same,inhibition of growth at 10 µM,KM12,144%
same,inhibition of growth at 10 µM,[2],84%
same,inhibition of growth at 10 µM,[3],86%
same,inhibition of growth at 10 µM,U-251,194%
same,inhibition of growth at 10 µM,SK-MEL-28,143%
same,inhibition of growth at 10 µM,[4],89%
same,inhibition of growth at 10 µM,[5],67%
same,inhibition of growth at 10 µM,[6],181%
same,inhibition of growth at 10 µM,[7],131%
same,inhibition of growth at 10 µM,[8],82%
same,inhibition of growth at 10 µM,[9],178%
same,inhibition of growth at 10 µM,MCF7,151%
same,inhibition of growth at 10 µM,MDA-MB-231,85%
same,inhibition of growth at 10 µM,[10],116%
same,GI50,K562 [11],1.3 µM
same,LC50,K562 [11],7.13 µM
same,TGI,K562 [11],3.89 µM
same,GI50,[12],1.45 µM
same,TGI,[12],4.14 µM
same,CC50,[12]; [26],15.3 µM
same,GI50,NCI-H23,1.69 µM
same,TGI,NCI-H23,3.83 µM
same,CC50,NCI-H23; [26],8.7 µM
same,GI50,NCI-H460,1.64 µM
same,LC50 (50% lethal concentration),NCI-H460,11.5 µM
same,TGI,NCI-H460,4.17 µM
same,GI50,NCI-H522,1.48 µM
same,LC50,NCI-H522,5.54 µM
same,TGI,NCI-H522,2.86 µM
same,GI50,[13],1.57 µM
same,LC50,[13],6.76 µM
same,TGI,[13],3.26 µM
same,GI50,[14],1.59 µM
same,TGI,[14],3.23 µM
same,CC50,[14]; [26],6.54 µM
same,GI50,[15],1.66 µM
same,LC50 (concentration killing 50% of cells),[15],6.04 µM
same,TGI,[15],3.17 µM
same,GI50,[16],1.44 µM
same,LC50,[16],7.07 µM
same,TGI,[16],3.19 µM
same,GI50,MDA-MB-435,1.49 µM
same,LC50,MDA-MB-435,6.78 µM
same,TGI,MDA-MB-435,3.18 µM
same,GI50,SK-MEL-5,1.22 µM
same,TGI,SK-MEL-5,2.47 µM
same,CC50,SK-MEL-5; [26],5.01 µM
same,GI50,[17],1.58 µM
same,TGI,[17],4.07 µM
same,CC50,[17]; [26],11.1 µM
same,GI50,[18],2.31 µM
same,LC50,[18],16.4 µM
same,TGI,[18],5.4 µM
same,GI50,786-0,1.46 µM
same,TGI,786-0,2.91 µM
same,CC50,786-0; [26],5.82 µM
same,GI50,[19],0.99 µM
same,TGI,[19],2.51 µM
same,CC50,[19]; [26],6.33 µM
same,GI50,[20],1.06 µM
same,LC50 (50% lethal concentration),[20],5.1 µM
same,TGI,[20],2.33 µM
same,GI50,[21],1.79 µM
same,TGI,[21],4.61 µM
same,CC50,[21]; [26],15.2 µM
same,GI50,[22],1.67 µM
same,TGI,[22],3.71 µM
same,CC50,[22]; [26],8.23 µM
same,inhibition,[23],54%
same,inhibition,[24],76%
same,inhibition,[25],80%
